Assays:
E0771 tumors [1] = assay: E0771 tumor growth analysis in C57BL/6 mice treated with DDA; format: in vivo, mouse; settings: 0.37 μg/kg or 20 mg/kg DDA IP every 5 days
Procedure: FIGS. 4A-C. Tumor growth analysis (A) Exponentially growing E0771 cells were collected, washed twice in PBS and resuspended in PBS (300,000 cells in 100 μl PBS). E0771 tumors were prepared by subcutaneous transplantation into the flanks of C57BL/6 mice. When tumor measured 50 mm3, the mice were treated every 5 days with 0.37 μg/kg or 20 mg/kg DDA or with the solvent vehicle (control).

[2] = tested on: human and murine mammary tumor cells; assay: Exosome secretion of mammary tumor cells treated with DDA; format: cell-based; settings: data not shown
SKMEL-28 cells [3] = assay: Exosome production of SKMEL-28 cells (shCTRL or shLXRbeta) treated with DDA; format: cell-based, human; settings: for production of exosomes: 2.5 μM DDA for 24 h
Procedure: Obtention of LXRβ knock-down cells. SKMEL28 cells ([…]) or E0771 (3×10^6) were transfected with the Neon Transfection System (Invitrogen) with 1 μg or 3 μg of small hairpin RNA targeting human LXRβ or mouse LXRβ (two different shRNA were used) or with 1 μg control ShRNA. Transfected cells were selected in multiwell plates (10 000 cells/well) with puromycin ranging from 1-10 μg/ml. Two clones transfected with two different shRNA against LXRβ with LXRβ expression knocked-down by 70% and 80% (for SKMEL28) and by 90% and 95% (for E0771) and two control clones were selected.
Exosome quantification. 1) Protein content in exosomes was quantified by the spectrophotometric method of Lowry in presence of 0.1% w/v sodium dodecyl […]. 2) Exosomes were also quantified by flow cytometry following labeling with the fluorescent lipid Bodipy-ceramide (Invitrogen-Molecular Probes) for 1 hour at 37° C. Excess of Bodipy-ceramide was removed by filtration and washing through the 1000 kDa Vivaspin filter and exosomes were quantitated by FACS. 3) Numeration of exosomes vesicles was performed either by nano tracking analysis (Nanosight equipment, Malvern, France) or by TRPS (tunable resistive pulse sensing) technology (qNano equipment, Izon, UK).

SKMEL-28 cells [4] = assay: Composition of exosomes from SKMEL-28 cells (shCTRL or shLXRbeta) treated with DDA; format: cell-based, human
Procedure: Exosome characterization. By flow cytometry: (tetraspanin analysis), exosomes (10 μg) were bound onto 10 μl of latex beads (Interfacial Dynamics/Invitrogen) in 200 μl PBS for 1 hour at 25° C. with gentle periodical shaking. Free sites on latex beads were saturated with 100 μl vesicle-free FBS for 30 min at 25° C. Beads with bound exosomes were centrifuged for 5 min at 5000 rpm, washed in 200 μl PBS, and diluted in 100 μl FACS buffer. Specific primary antibody or control isotype (1:50) were added and incubated at room temperature for 30 min. After centrifugation and washing, secondary antibody (1:100) was added and incubated for 30 min at room temperature. Beads with bound antibody-labelled exosomes were diluted in 1 ml FACS buffer and analyzed by flow cytometry (FACScalibur, Becton-Dickinson). By western-blot analysis: 5-20 μg exosomes were directly diluted in sample buffer and denaturated by heating at 60° C. for 10 min. Equal amounts of proteins were deposited in each well and proteins were resolved in SDS-PAGE and transferred onto PVDF membranes, saturated with 5% w/v non-fat milk in TBS-Tween 0.1%. […] Revelation from immunoblotting was performed by enhanced chemiluminescence and analysed by ChemiDoc imager (BioRad) or by Pxi imager (Ozyme). By sucrose gradient: the density of exosomes was measured through a sucrose gradient. […]

[5] = tested on: naive CD4 T cells from the spleen of WT or LXRαβKO mice; assay: Polarization of naive CD4 T cells from WT or LXRαβKO mice in presence of DDA; format: cell-based, mouse
Procedure: FIGS. 9A-B. Sorted naive CD4 T cells were isolated from the spleen of WT or LXRαβKO mice (collaboration with Hervé Guillou, INRA, Toulouse) and activated in the indicated Th1 or Treg polarizing conditions. These cells were cultured in the presence of increasing concentrations of DDA. After 96 hours, the percentage of (A) Th1: CD4+Tbet+IFNg+ and (B) Treg: CD4+Foxp3+IL10+ cells was measured by flow cytometry and expressed relative to the control.
FIG. 10. Sorted naive CD4 T cells were isolated from the spleen of WT or LXRαβKO mice and activated in Th2 polarizing conditions. These cells were cultured in the presence of increasing concentrations of DDA. After 96 hours, the percentage of Th2: CD4+GATA3+IL4+ cells was measured by flow cytometry and expressed relative to the control.

E0771 tumors [6] = assay: Immune cells infiltrated into E0771 tumors (wild type, sh control, sh LXR) after DDA, flow cytometry; format: in vivo, mouse

CC(C)CCCC(C)[C@H]1CCC2C3C[C@@H](NCCc4cnc[nH]4)[C@@]4(O)C[C@@H](O)CC[C@]4(C)C3CC[C@@]21C (stereo partly drawn) [DDA, 5a-hydroxy-6b-[2-(1H-imidazol-4-yl)ethylamino]cholestan-3b-ol]
mice survival (E0771 tumors [1]): increases mice survival
tumor growth (E0771 tumors [1]): inhibits tumor growth
production of exosome secreted into the media [2]: also observed
production of exosomes (SKMEL-28 cells [3]; SKMEL-28-shCTRL cells): about 2 fold
production of exosomes (SKMEL-28 cells [3]; SKMEL-28-shLXRbeta cells): does not stimulate
exosome secretion from human melanoma cells (SKMEL-28 cells [3]; SKMEL-28 cells, data not shown): stimulates exosome secretion
exosome content of rab27a and b, HSP70, Melan A, tyrosinase, TRP2, calreticuline (SKMEL-28 cells [4]; exosomes from SKMEL-28-shCTRL cells): enriched
exosome content of rab27a and b, HSP70, Melan A, tyrosinase, TRP2, calreticuline (SKMEL-28 cells [4]; exosomes from SKMEL-28-shLXRbeta cells): not enriched
DDA effect on Th1 differentiation ([5]; LXRαβKO mice): abrogated
DDA effect on Treg differentiation ([5]; LXRαβKO mice): abrogated
differentiation of Th0 into Th1 ([5]; WT mice, Th1 polarizing conditions, 96 h (FIG. 9)): increases
differentiation of Th0 into Treg ([5]; WT mice, Treg polarizing conditions, 96 h (FIG. 9)): decreases
Th2 differentiation ([5]; WT or LXRαβKO mice, Th2 polarizing conditions, 96 h (FIG. 10)): no impact
number of macrophages M2 infiltrated into the tumors (E0771 tumors [6]; 0.37 μg/kg DDA (FIG. 18)): decreases
number of MDSC infiltrated into the tumor (E0771 tumors [6]; 0.37 μg/kg DDA (FIG. 19)): decreases
ratio of dendritic cells CD11+ CD8α+ versus MDSC (E0771 tumors [6]; 0.37 μg/kg DDA (FIG. 19)): increases
LXRβ dependence of effect on macrophages M1 (E0771 tumors [6]; shLXRβ vs LXRβ expressing tumors (FIG. 18)): dependent of the LXRβ
effects on MDSC and dendritic cells/MDSC ratio (E0771 tumors [6]; tumors knocked-down for the LXRβ (FIG. 19)): abolished

Reference: US20230138400A1, “METHODS AND PHARMACEUTICAL COMPOSITIONS FOR REPROGRAMING IMMUNE ENVIRONMENT IN A SUBJECT IN NEED THEREOF” (INSERM (INSTITUT NATIONAL DE LA SANTE ET DE LA RECHERCHE …, priority 2016, published 2023)
